Reference: paper PMC3409642 (Pharmaceutical research, 2012)

Target: T1, UGT1A9 (Homo sapiens, UniProt O60656)
T1 sequence (O60656 26-530): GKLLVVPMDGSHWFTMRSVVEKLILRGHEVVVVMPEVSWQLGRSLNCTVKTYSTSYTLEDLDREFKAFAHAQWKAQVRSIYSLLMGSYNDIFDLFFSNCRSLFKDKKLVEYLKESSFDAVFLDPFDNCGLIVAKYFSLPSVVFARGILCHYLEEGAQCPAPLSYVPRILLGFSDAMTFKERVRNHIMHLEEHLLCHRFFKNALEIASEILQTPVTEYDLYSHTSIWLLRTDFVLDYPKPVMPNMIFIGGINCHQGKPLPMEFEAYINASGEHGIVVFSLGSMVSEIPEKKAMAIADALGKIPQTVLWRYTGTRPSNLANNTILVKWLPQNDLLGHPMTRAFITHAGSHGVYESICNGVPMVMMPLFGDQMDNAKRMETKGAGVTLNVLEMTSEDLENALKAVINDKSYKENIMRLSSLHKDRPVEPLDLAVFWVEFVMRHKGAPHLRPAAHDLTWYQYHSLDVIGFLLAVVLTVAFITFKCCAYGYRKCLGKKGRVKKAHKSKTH
Test: not given
Conditions: not given

In the case of `O=c1cc(-c2cccc(O)c2)oc2cc(O)c(O)cc12` [compound 36, 6,7,3′-Trihydroxflavone], the “CLint (Vmax/Km)” value is reported as 775 µL/min/mg.

Same assay, conditions: human, recombinant enzyme

`O=c1cc(-c2cccc(O)c2)oc2cc(O)c(O)cc12` [compound 36, 6,7,3′-Trihydroxflavone] was tested, and the “Log (CLint) (Actual)” value was 2.89.

Same assay, conditions: human, recombinant enzyme, pH 7.4

In order of falling “Log (CLint) (Actual)” value:
1. O=C(/C=C/c1ccccc1)c1ccccc1O [compound 5, 2′-Hydroxychalcone]  3.12
2. O=c1cc(-c2ccccc2)oc2cccc(O)c12 [compound 34, 5-Hydroxyflavone]  2.09

Same assay, conditions: pH 7.4

`O=c1cc(-c2cccc(O)c2)oc2cc(O)c(O)cc12` [compound 36, 6,7,3′-Trihydroxflavone] showed a Km of 3.01 µM.

Target: T1, UGT1A9
Test: Kinetic profiling of glucuronidation by expressed human UGT1A9
Conditions: log of experimental CLint (μl/mg/min)

In order of rising “Log (CLint) (Actual)” value:
1. O=C1[C@H](CC[C@H](O)c2ccc(F)cc2)[C@@H](c2ccc(O)cc2)N1c1ccc(F)cc1 [compound 141, Ezetimibe, reference compound]  −0.56
2. COc1cc(/C=C/c2ccc(O)cc2)cc(OC)c1 [compound 137, Pterostilbene]  0.05
3. Oc1ccc([C@H]2COc3cc(O)ccc3C2)cc1 [compound 103, Equol]  0.57
4. CCOc1ccc(O)cc1 [compound 113, 4-Ethoxyphenol]  0.92
5. CCCOc1ccc(O)cc1 [compound 125, 4-Propoxyphenol]  1.00
6. CC(=O)c1ccc(O)cc1 [compound 121, 4-Hydroxyacetophenone]  1.15
7. Oc1ccc(F)cc1 [compound 115, 4-Fluorophenol]  1.18
8. COc1ccc(O)cc1 [compound 118, 4-Methoxyphenol]  1.18
9. Oc1ccc(-c2ccccc2)cc1 [compound 123, 4-Phenylphenol]  1.34
10. COc1ccc(-c2coc3cc(O)ccc3c2=O)cc1 [compound 104, Formononetin]  1.48
11. CCCCOC(=O)c1ccc(O)cc1 [compound 129, Butyl-4-hydroxybenzoate]  1.51
12. O=[N+]([O-])c1ccc(O)cc1 [compound 120, 4-Nitrophenol]  1.56
13. CCCc1ccc(O)cc1 [compound 126, 4-n-Propylphenol]  1.62
14. O=c1c(O)c(-c2ccc(O)cc2O)oc2cc(O)cc(O)c12 [compound 89, Morin]  1.77
15. Oc1ccc(C2CCCC2)cc1 [compound 112, 4-Cyclopentylphenol]  1.78
16. Oc1ccc(/C=C/c2cc(O)cc(O)c2)cc1 [compound 138, Resveratrol]  1.8
17. O=C(c1ccccc1)c1ccc(O)cc1 [compound 122, 4-Hydroxybenzophenone]  1.83
18. Oc1ccc2c(c1)OC[C@H]1c3cc4c(cc3O[C@@H]21)OCO4 [compound 107, Maackiain]  1.87
19. CCc1ccc(O)cc1 [compound 114, 4-Ethylphenol]  1.87
20. O=c1c(O)c(-c2ccccc2O)oc2ccccc12 [compound 59, 3,2′-Dihydroxyflavone]  1.89
21. COc1c(C)c2c(c(O)c1C/C=C(\C)CCC(=O)O)C(=O)OC2 [compound 142, Mycophenolic Acid, reference compound]  1.96
22. Oc1ccc(Cl)cc1 [compound 111, 4-Chlorophenol]  1.98
23. O=c1c(O)c(-c2ccccc2O)oc2cc(O)cc(O)c12 [compound 83, Datiscetin]  2.00
24. (−)-Epigallocatechingallate [1.a]  2.20
25. COc1cc(O)c2c(=O)c(-c3ccc(O)cc3)coc2c1 [compound 108, Prunetin]  2.25
26. COc1ccc(-c2cc(=O)c3ccc(O)cc3o2)cc1 [compound 47, 7-Hydroxy-4′-methoxyflavone]  2.36
27. COc1cc2c(=O)c(-c3ccc(O)cc3)coc2cc1O [compound 106, Glycitein]  2.44
28. COc1cc2c(=O)c(-c3ccccc3)coc2cc1O [compound 98, 7-Hydroxy-6-methoxyisoflavone]  2.57
29. Cc1ccc(C(=O)c2cc(O)c(O)c([N+](=O)[O-])c2)cc1 [compound 145, Tolcapone, reference compound]  2.62
30. O=c1cc(-c2cccc(O)c2)oc2cc(O)ccc12 [compound 43, 7,3′-Dihydroxyflavone]  2.74
31. O=c1cc(-c2ccccc2O)oc2cc(O)ccc12 [compound 42, 7,2′-Dihydroxyflavone]  2.77
32. COc1ccccc1-c1cc(=O)c2ccc(O)cc2o1 [compound 44, 7-Hydroxy-2′-methoxyflavone]  3.00
33. O=c1cc(-c2ccccc2)oc2cc(O)ccc12 [compound 49, 7-Hydroxyflavone]  3.13
34. Cc1c(-c2ccccc2)oc2cc(O)ccc2c1=O [compound 45, 7-Hydroxy-3-methylflavone]  3.30
35. COc1ccc(/C=C\c2cc(OC)c(OC)c(OC)c2)cc1O [compound 136, Combretastatin A4]  3.33
36. O=c1cc(-c2ccccc2O)oc2cc(O)cc(O)c12 [compound 40, 5,7,2′-Trihydroxyflavone]  3.57
37. COc1ccc2c(=O)c(-c3ccccc3)coc2c1O [compound 99, 8-Hydroxy-7-methoxyisoflavone]  3.57
38. COc1c(O)cc(O)c2c(=O)cc(-c3ccccc3)oc12 [compound 58, Wogonin]  3.60
39. COc1cc(-c2oc3cc(O)ccc3c(=O)c2O)ccc1O [compound 86, Geraldol]  3.60
40. O=c1c(O)c(-c2ccccc2)oc2ccccc12 [compound 81, 3-Hydroxyflavone]  3.84
41. O=c1c(O)c(-c2ccccc2)oc2cccc(O)c12 [compound 61, 3,5-Dihydroxyflavone]  3.87
42. COc1cccc(-c2oc3ccccc3c(=O)c2O)c1OC [compound 71, 3-Hydroxy-2′,3′-dimethoxyflavone]  3.92
43. CCN(CC)C(=O)/C(C#N)=C/c1cc(O)c(O)c([N+](=O)[O-])c1 [compound 140, Entacapone, reference compound]  4.01
44. COc1ccccc1-c1oc2ccccc2c(=O)c1O [compound 72, 3-Hydroxy-2′-methoxyflavone]  4.25
45. O=c1c(O)c(-c2ccc(O)cc2)oc2ccc(O)cc12 [compound 62, 3,6,4′-Trihydroxyflavone]  4.34
46. O=c1c(O)c(-c2ccc(O)c(O)c2)oc2ccccc12 [compound 63, 3,3′,4′-Trihydroxyflavone]  4.34
47. COc1cccc2oc(-c3ccccc3)c(O)c(=O)c12 [compound 76, 3-Hydroxy-5-methoxyflavone]  4.36
48. COc1cc(OC)c2c(=O)c(O)c(-c3ccccc3)oc2c1 [compound 75, 3-Hydroxy-5,7-dimethoxyflavone]  4.40
49. O=c1c(O)c(-c2cccc(O)c2)oc2ccccc12 [compound 60, 3,3′-Dihydroxyflavone]  4.44
50. COc1ccc(-c2oc3ccccc3c(=O)c2O)cc1 [compound 74, 3-Hydroxy-4′-methoxyflavone]  4.51
51. COc1ccc2c(=O)c(O)c(-c3ccccc3)oc2c1 [compound 80, 3-Hydroxy-7-methoxyflavone]  4.57
52. COc1cc(O)c2c(=O)c(O)c(-c3ccc(O)c(O)c3)oc2c1 [compound 93, Rhamnetin]  4.65
53. COc1cccc(-c2oc3ccccc3c(=O)c2O)c1 [compound 73, 3-Hydroxy-3′-methoxyflavone]  4.66
54. COc1ccc(-c2oc3cc(OC)ccc3c(=O)c2O)cc1 [compound 79, 3-Hydroxy-7,4′-dimethoxyflavone]  4.66
55. COc1ccc(-c2oc3ccc(OC)cc3c(=O)c2O)cc1 [compound 77, 3-Hydroxy-6,4′-dimethoxyflavone]  4.71
56. COc1ccc2oc(-c3ccccc3)c(O)c(=O)c2c1 [compound 78, 3-Hydroxy-6-methoxyflavone]  4.86
57. Cc1ccc2oc(-c3ccc4c(c3)OCO4)c(O)c(=O)c2c1 [compound 82, 3-Hydroxy-6-methyl-3′,4′-methylenedioxyflavone]  4.96
58. Cc1ccc2oc(-c3ccccc3)c(O)c(=O)c2c1 [compound 66, 3-Hydroxy-6-methylflavone]  5.04

Same assay, conditions: log of experimental CLint (μl/mg/min); listed as 1.b

With (−)-Epigallocatechingallate [1.a] the “Log (CLint) (Actual)” value was 2.81.
